Results taken from ChEMBL document CHEMBL5143742, “Discovery and Characterization of a Novel Series of Chloropyrimidines as Covalent Inhibitors of the Kinase MSK1” (ACS Med Chem Lett, 2022).

Legend:
[1] = Lipophilicity, log D of the compound; type: physicochemical; details: octanol/water
[2] = Intrinsic clearance in human liver microsomes assessed per mg protein; type: ADME, Microsome
[3] = Intrinsic clearance in mouse liver microsomes assessed per mg protein; type: ADME, Microsome

Clc1ncc(Cl)c(-n2ccc3ncccc32)n1 showed a logD [1] of 2.3, a CLH [2] of 11.7 µL/min and a CLH [3] of 131 µL/min.
